Among the data in ChEMBL document CHEMBL1150599, “Spiroidesin, a novel lipopeptide from the cyanobacterium Anabaena spiroides that inhibits cell growth of the cyanobacterium Microcystis aeruginosa” (J Nat Prod, 2002) are IC50 values, retold here.

One may read the IC50 as the concentration that inhibits the measured activity by half. A low value points to higher potency.

The nature of assay [1]: Inhibition of alpha-chymotrypsin.
The test system of a further assay is Microcystis aeruginosa. Briefly: Growth inhibition of Microcystis aeruginosa NIES-88 after 5 days. In kind it is functional, organism-based. Conditions: NIES-88, 120 h.

As to `CCCCCC(=O)N[C@H](CCc1ccc(O)cc1)C(=O)N[C@@H](CCc1ccc(O)cc1)C(=O)N[C@H](Cc1ccccc1)C(=O)O` [SPIROIDESIN], the IC50 in assay [1] turned out to be 10 µM; in the assay on Microcystis aeruginosa, 1.6 µM.
